Patent publication US7144721B1, “Treatment of wounds” (The Secretary of the State of Defense, Defence Science and …, priority 1999, dated 2006)
Values belong to the compound of their own block, whether it stands above or below them. Square brackets hold non-standard residues; d marks the D form. Peptide text beside a SMILES is read from it. * marks the point of attachment. Sta = CC(C)C[C@H](N)[C@@H](O)CC(=O)O; Isovaleryl = CC(C)CC(=O)*

Experiments:
Format in all cases: biochemical
[1] = system: fibronectin, laminin and collagens I, III, IV and V; assay: Degradation of ECM/wound components by larval ES secretions
[2] = system: trypsin-like serine proteinase activity in Lucilia sericata ES; assay: Tosyl-Gly-Pro-Arg-AMC hydrolysis by Lucilia sericata ES in the presence of APMSF and PMSF
Protocol: (§1) The activity of Lucilia sericata ES (0.25 μg) against Tosyl-Gly-Pro-Arg-AMC (a) and against Suc-Ala-Ala-Phe-AMC (b) in the presence of APMSF and PMSF was investigated using different presentations of ES as follows:
(a) • A. ES • B. ES pre-incubated with 0.025 mM APMSF • C. ES pre-incubated with 0.05 mM APMSF • D. ES pre-incubated with 1 mM PMSF
(§2) The results for (a) reveal the “trypsin-like” serine proteinase activity present in Lucilia sericata ES. The hydrolysis of Tosyl-Glyc-Pro-Arg-AMC (selective for the serine proteinases thrombin and plasmin) was inhibited by 1 mM PMSF and 0.05 mM APMSF. […] The results provide further evidence of the presence in ES of two different sub-classes of serine proteinase.

[3] = system: Lucilia sericata ES serine proteinase activity; assay: FITC-casein hydrolysis by Lucilia sericata ES at pH8 in the presence of PMSF/APMSF
Protocol: The activity of Lucilia sericata ES in FITC-casein hydrolysis at pH8 was investigated using different presentations of ES (0.25 μg) as follows:
The proteolytic activity of Lucilia sericata ES was inhibited following pre-incubation with the irreversible serine proteinase inhibitor PMSF. […] PMSF is dissolved in ethanol and the effect of the solvent on the activity of the ES was negligible. In contrast, approximately 50% of residual serine proteinase activity from ES was detected in the cases where the ES had been pre-incubated with the irreversible “trysin-like” specific inhibitor APMSF. Residual activity in the presence of APMSF indicates the presence of a chymotrypsin-like enzyme.

[4] = system: chymotrypsin-like serine proteinase activity in Lucilia sericata ES; assay: Suc-Ala-Ala-Phe-AMC hydrolysis by Lucilia sericata ES in the presence of APMSF and PMSF
Protocol: as §1
(b) • E. ES • F. ES pre-incubated with 0.2 mM APMSF • G. ES pre-incubated with 1 mM PMSF
as §2

[5] = system: trypsin-like serine proteinase (aminobenzamidine elution peak) and flow-through proteinases of Lucilia sericata ES; assay: Residual proteinase activity of aminobenzamidine agarose column fractions with APMSF
Protocol: The trypsin-like serine proteinase was purified by affinity chromatography of Lucilia sericata ES on aminobenzamidine agarose. The column matrix (1 ml) was equilibrated with 20 ml of 0.025M Tris-HCl buffer pH 8.0 containing 0.5M NaCl. The crude ES (0.5 ml, 70 μg/ml protein) was diluted with an equal volume of buffer before application to the column. Fractions (0.5 ml) were collected throughout the chromatography. After washing with 6.5 times column volume of buffer to remove unbound protein, the free aminobenzamidine ligand (2 ml 400 μM) was used to elicit the elution of bound material. Absorbance readings of the fractions at 280 nm was used to establish the positions of the unbound (flow-through) and bound peaks which were then collected for assay.
Aminobenzamidine agarose binds trypsin-like serine proteinases. Following application of larval enzyme secretions to the column, unbound material passed directly through and was collected as “flow-through” (peak I). The addition of free aminobenzamidine to the column buffer elicited elution of the bound proteinase (peak II). The unbound (flow-through) material contained proteinase activity unaffacted by APMSF (possibly including a a chrymotrypsin-like enzyme), whereas the activity in the aminobenzamidine elution peak was substantially abolished (80%) by APMSF, indicating purification of a trypsin-like serine proteinase activity.

[6] = Lipase activity of ES secretions; conditions: pre-incubated with the inhibitor
[7] = system: exopeptidase (metalloproteinase activity) of Lucilia sericata ES; assay: Leucine aminopeptide hydrolysis by Lucilia sericata ES
From the text: (§3) In addition to the predominant serine proteinase activity detected in the ES secretions of Lucilia sericata other less predominant activity is present. The presence of an aspartyl and metalloproteinase activity has been detected though no cysteinyl activity is shown. […] This inhibition reflects the presence of an exopeptidase with a metalloproteinase enzymic nature.

[8] = system: aspartyl activity of Lucilia sericata ES; assay: Aspartyl proteinase activity of ES by FITC-casein hydrolysis at pH 5.0
From the text: as §3

[9] = ES (0.25 μg) pre-incubated with 0.2 mM inhibitor
[10] = ES (0.25 μg) pre-incubated with 1 mM inhibitor

Compound: N=C(N)c1ccc(CS(=O)(=O)F)cc1 [APMSF, 4-(amidinophenyl) methane sulphonyl fluoride]
- inhibition of the degradation of laminin and fibronectin by larval secretions [1]: not significantly
- residual activity (%) against Tosyl-Gly-Pro-Arg-AMC ([2]; ES (0.25 μg) pre-incubated with 0.025 mM inhibitor): 14.3%
- residual activity (%) against Tosyl-Gly-Pro-Arg-AMC ([2]; ES (0.25 μg) pre-incubated with 0.05 mM inhibitor): 3.6%
- activity (%) of ES in FITC-casein hydrolysis ([3]; ES (0.25 μg) pre-incubated with 0.04 mM inhibitor): 43.5%
- activity (%) of ES in FITC-casein hydrolysis ([3]; ES (0.25 μg) pre-incubated with 0.12 mM inhibitor): 47%
- activity (%) of ES in FITC-casein hydrolysis [3, 9]: 54%
- residual serine proteinase activity from ES ([3]; ES pre-incubated with APMSF, summary over the concentrations): approximately 50%
- residual activity (%) against Suc-Ala-Ala-Phe-AMC [4, 9]: 86.8%
- activity abolished by inhibitor ([5]; aminobenzamidine elution peak (peak II)): 80%
- effect of inhibitor on proteinase activity ([5]; unbound (flow-through) material (peak I)): unaffacted

Compound: O=S(=O)(F)Cc1ccccc1 [PMSF, phenyl methanesulphonyl fluoride]
- inhibition of the degradation of laminin and fibronectin by larval secretions [1]: inhibited
- residual activity (%) against Tosyl-Gly-Pro-Arg-AMC [2, 10]: 0%
- lipase activity of ES secretions pre-incubated with inhibitor [6]: not detected
- activity (%) of ES in FITC-casein hydrolysis [3, 9]: 13.8%
- activity (%) of ES in FITC-casein hydrolysis ([3]; ES (0.25 μg) pre-incubated with 0.6 mM inhibitor): 18%
- residual activity (%) against Suc-Ala-Ala-Phe-AMC [4, 10]: 1.3%

- inhibition of leucine aminopeptide hydrolysis [7]: inhibited
Compound: c1cnc2c(c1)ccc1cccnc12 [1,10-phenanthroline]
- inhibition of the degradation of laminin and fibronectin by larval secretions [1]: not significantly

Compound: CC(C)CC(=O)N[C@H](C(=O)N[C@H](C(=O)N[C@@H](CC(C)C)[C@@H](O)CC(=O)N[C@@H](C)C(=O)N[C@@H](CC(C)C)[C@@H](O)CC(=O)O)C(C)C)C(C)C [pepstatin A] (Isovaleryl-VV[Sta]A[Sta]-OH)
- inhibition of aspartyl activity [8]: successfully inhibited
